Data as given in PubChem BioAssay (NCI).
Where “and” joins values, the source holds several entries; their conditions need not be identical. Identical values can stand only once.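 Where inhibition never reached the appropriate level, the endpoint shown equals the highest concentration tested. Otherwise, values were interpolated linearly from a five-concentration, 48-hour dose response in 96-well plates. The concentration for 50% growth inhibition is given as GI50. At the TGI there is no net growth.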

How the values were obtained:
Test in all cases: NCI anticancer screen, dose series, 48 h
[1] = test system: RXF 393 renal
[2] = test system: U251 CNS
[3] = test system: T-47D breast
[4] = test system: NCI-H522 lung
[5] = test system: UACC-257 melanoma
[6] = test system: SN12C renal
[7] = test system: SW-620 colon
[8] = test system: SR leukemia
[9] = test system: SF-295 CNS
[10] = test system: MOLT-4 leukemia

Structure (SMILES) | TGI [1] | TGI [2] | TGI [3] | TGI [4] | TGI [5] | TGI [6] | TGI [7] | TGI [8] | TGI [9] | TGI [10] | GI50 [8]
CCOC(=O)Nc1cc2c(c(N)n1)N=C(c1ccc3ccccc3c1)CN2 | 27.4 µM | > 100 µM | > 100 µM | 0.545 µM | > 100 µM | 5.29 µM | 31.4 µM | > 100 µM | – | – | –
COC(=O)NC1C(C)OC(OC2C/C=C(/C)C3C=CC4C(OC5CC(OC6CC(OC7CC(O)C(O)C(C)O7)C(OC7CC(O)C(OC)C(C)O7)C(C)O6)C(O)C(C)O5)C(C)CC(C)C4C3(C)/C(O)=C3\C(=O)OC4(CC(C)C(CO)=CC4/C=C\2C)C3=O)CC1(C)[N+](=O)[O-] (stereo unspecified) | – | 44.9 µM | 25 µM | 49.4 µM | 57.8 µM | > 100 µM | > 100 µM | 24.2 µM | 53.2 µM | 31.7 µM | –
Nc1nc(OCC2CCCCC2)c2[nH]cnc2n1 | 57.1 µM | > 73.7 µM | 30 µM | 60.1 µM | 61.8 µM | 56.3 µM | > 100 µM | > 59.1 µM | > 75.6 µM | > 68.8 µM | –
COC(=O)/C=C1\CCCN1CCc1cc2c(cc1CC#N)OCO2 | > 100 µM | > 100 µM | > 100 µM | > 100 µM | > 100 µM | > 100 µM | > 100 µM | > 100 µM | > 100 µM | > 100 µM | –
CS(=O)(=O)OCCN(CCOS(C)(=O)=O)c1ccc(/C=N/Nc2ncnc3nc[nH]c23)cc1 | 37.9 µM | 53.5 µM | – | 31.1 µM | 48.9 µM | > 100 µM | 66.8 µM | 46 µM | 46.6 µM | 40 µM | –
O=C(CSc1nc2ccc(I)cc2c(=O)n1Cc1ccccc1)NN1C(=O)c2ccccc2C1=O | 25.5 µM | 30.1 µM | 50 µM | 34.1 µM | 51.4 µM | 57.3 µM | > 100 µM | > 100 µM | 29.4 µM | 95 µM | –
Cc1[nH]n(-c2ccccc2)c(=O)c1C(N(CCc1ccccc1)C1=NCC(C)S1)(C(F)(F)F)C(F)(F)F (stereo unspecified) | – | 31.2 µM | 43.1 µM | 28.2 µM | 56.7 µM | 48.5 µM | 95.3 µM | 90.4 µM | 84.2 µM | 97.8 µM | –
NCCNCCNc1ccc(NCCNCCN)c2c1C(=O)c1c(O)ccc(O)c1C2=O | > 100 µM | > 100 µM | – | > 100 µM | > 100 µM | > 100 µM | > 100 µM | 23.8 µM | > 100 µM | > 100 µM | –
C[N+](C)(C)CCN[N+]1(C)CCCc2ccccc21 (stereo unspecified) | > 100 µM | > 100 µM | > 100 µM | 40.3 µM | > 100 µM | > 100 µM | > 100 µM | > 100 µM | > 100 µM | 90.6 µM | –
CCOP(=O)(OCC)C(Nc1cccc(F)c1)c1ccc(N(C)C)cc1 (stereo unspecified) | > 100 µM | > 100 µM | > 100 µM | > 100 µM | > 100 µM | > 100 µM | > 100 µM | > 100 µM | > 100 µM | > 100 µM | –
Cc1ccc(N=NC(C2=NC(=O)CS2)c2nc3ccccc3[nH]2)cc1 (stereo unspecified) | – | > 100 µM | – | > 100 µM | > 100 µM | > 100 µM | > 100 µM | > 100 µM | > 100 µM | 76.7 µM | –
O=c1c2cc(S(=O)(=O)O)ccc2nc(COc2ccc(Oc3ccc(Cl)cc3Cl)cc2)n1C(=S)Nc1ccc(Cl)cc1 | 31 µM | 35.5 µM | > 100 µM | 39.8 µM | 60.5 µM | 34.7 µM | 49.4 µM | 22.9 µM | 39.6 µM | – | –
Cc1ccc([N+](=O)[O-])cc1S(=O)(=O)Nc1ccc(C2=NOC(c3ccccc3O)C2)cc1 (stereo unspecified) | 11.1 µM | – | > 100 µM | 6.4 µM | > 100 µM | > 100 µM | > 100 µM | 13.4 µM | > 100 µM | 9.04 µM | –
CC(=O)OCC1OC(Oc2cc(C)c(O)cc2C/C=C(\C)CC/C=C(\C)C[C@@H](C=C(C)C)OC(C)=O)C(O)C(OC(C)=O)C1OC(C)=O (stereo partly specified) | 34.4 µM | > 50 µM | 30.7 µM | > 50 µM | 39.8 µM | > 50 µM | > 50 µM | – | > 50 µM | 20.5 µM | –
CC1(C=O)CCC23COC4(CCC5C6(C)CCC(OC7OCC(OC8OC(CO)C(O)C(OC9OC(CO)C(O)C(O)C9O)C8OC8OCC(O)C(O)C8O)C(O)C7OC7OC(CO)C(O)C(O)C7O)C(C)(C)C6CCC5(C)C4(C)CC2O)C3C1 (stereo unspecified) | – | > 100 µM | 3.36 µM | 3.41 µM | – | – | 3.14 µM | 0.617 µM | 2.23 µM | – | –
c1c2c(cc3c1OCO3)-c1cc3ccc4c(c3c[n+]1CC2)OCO4 | > 12.5 µM | > 11.4 µM | > 12.5 µM | 1.8 µM | > 12.5 µM | > 12.5 µM | > 12.5 µM | > 12.5 µM | 3.52 µM | > 12.5 µM | –
CN(C)CCCN1c2ccc([N+](=O)[O-])cc2CCc2cc([N+](=O)[O-])ccc21 | 19.9 µM and 25.6 µM | 30.2 µM and 27.6 µM | 32.1 µM and 36.3 µM | 32.3 µM and 34 µM | 28.7 µM and 27.4 µM | 29.3 µM and 28.4 µM | 34 µM and 33.2 µM | > 100 µM and 31.4 µM | 29.4 µM and 29.8 µM | 42.9 µM and 25.3 µM | 30.4 µM and 13.1 µM
